We go through 1 compound from paper PMC12010006, “Subnanomolar MAS-related G protein-coupled receptor-X2/B2 antagonists with efficacy in human mast cells and disease models” (Signal Transduction and Targeted Therapy, 2025).

Entries after “also recorded” stand apart in the source; their conditions may differ.

The subject of assay [1] is C48/80-induced systemic anaphylaxis. Kind of assay: Systemic anaphylactic reaction, plasma CCL2. The format is in vivo, mouse. As to conditions: 50 mg/kg b.w., i.p.; C48/80 2 mg/kg i.p.; 4 h; listed as PSB-172656. Here is the method:
PSB-172656 was further investigated in a mouse model of skin inflammation,[54] determining its effects on C48/80-induced hind paw edema. […] These findings indicate a strong anti-inflammatory effect of the MRGPRX2/B2 antagonist in this mouse model.
30 min after intraperitoneal administration of PSB-172656 at a dose of 50 mg/kg b.w. or vehicle (2% DMSO), an anaphylactic reaction was induced by the intraperitoneal injection of C48/80 at a dose of 2 mg/kg b.w. (in 0.9% NaCl). The non-lethal dose of this compound was assumed based on the literature.[70],[71] The mice were then left in their cages for 4 h. Then, heparin (2500 U/mouse) and sodium thiopental at a dose of 70 mg/kg b.w. were administered intraperitoneally, and blood was collected after decapitation. The plasma concentration of CCL-2 and IL-8 was determined using an ELISA kit (catalog number: E1707Mo, E1481Mo, BT LAB, China).

Another assay concerns the target T1, MRGPRX2 (Homo sapiens, UniProt Q96LB1).
T1 sequence (Q96LB1 1-330): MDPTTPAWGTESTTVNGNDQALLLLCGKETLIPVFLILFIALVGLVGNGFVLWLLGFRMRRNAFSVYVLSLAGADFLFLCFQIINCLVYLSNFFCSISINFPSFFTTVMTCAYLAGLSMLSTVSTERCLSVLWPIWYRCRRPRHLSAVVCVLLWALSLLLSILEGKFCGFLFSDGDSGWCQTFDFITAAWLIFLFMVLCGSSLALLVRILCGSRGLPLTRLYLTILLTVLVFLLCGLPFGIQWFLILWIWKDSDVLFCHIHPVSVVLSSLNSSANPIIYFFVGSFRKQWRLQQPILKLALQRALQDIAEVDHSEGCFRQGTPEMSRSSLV
As to the kind of experiment: TRUPATH Gαi1 dissociation assay, LN229 cells expressing MRGPRX2. It counts as cell-based. Further details: expressed in transfected cells; host or cells: LN229 human glioblastoma cells; plasmid pLXSN-MRGPRX2 (Addgene #213960). The conditions noted are these: 100 nM, preincubation. The protocol: Fig. 3 Biological characterization of PSB-172656. a Selectivity of PSB-172656 (100 nM) for MRGPRX2 over MRGPRX1, MRGPRX3, and MRGPRX4 measured in β-arrestin assays utilizing β-arrestin-CHO cells with recombinant expression of the respective receptor. MRGPRX1 was activated by BAM-22P (8.5 µM),[19] MRGPRX2 was activated by CST-14 (1 µM), MRGPRX3 was activated by PSB-20294 (10 µM), MRGPRX4 was activated by PSB-18061 (2.6 µM).[44] Data represent mean values ± SEM of 3-4 biological replicates, performed in duplicates. […] Data are means ± SEM of 3 biological replicates, in duplicates. Statistical significance was determined by one-way ANOVA (Tukey’s multiple comparison) test (ns P > 0.05). […] Data are means ± SEM of 3 biological replicates, performed in duplicates. e Shift assay to determine inhibition type of PSB-172656 versus CST-14. […] Extrapolated data were not used for analysis but only shown for a comprehensive view. f Schild plot for the effect of PSB-172656 on the concentration-response curves for CST-14. […]
To further investigate PSB-172656 signaling, direct activation of the relevant G protein subunits, Gαq and Gαi1,[32] was studied. This was assessed using G protein dissociation assays and LN229 cells stably overexpressing MRGPRX2 while transiently expressing the investigated G protein (Fig. 3c, d).[47]

In assay [2] the test system is C48/80-induced hind paw edema. Kind of assay: Local allergic reaction (hind paw edema). The format is in vivo, mouse. The conditions noted are these: 50 mg/kg b.w., i.p.; C48/80 20 µL of 30 µg/mL into right hind paw; listed as PSB-172656. Here is the method:
PSB-172656 was further investigated in a mouse model of skin inflammation,[54] determining its effects on C48/80-induced hind paw edema. […] These findings indicate a strong anti-inflammatory effect of the MRGPRX2/B2 antagonist in this mouse model. Mice were given the antagonist PSB-172656 intraperitoneally at a dose of 50 mg/kg b.w. or vehicle (2% DMSO). The volume of the paws (both right (test) and left (control)) was measured using a plethysmometer (7140, UgoBasile, Italy). After 30 min, 20 µL of C48/80 (30 µg/mL) were injected into the right paw and 20 µL of 0.9% NaCl into the left paw. After 15 min, paw thickness was measured again. Mice were then killed by dislocation of cervical vertebrae. The mouse model has been described previously.[54],[69]

As for `CCc1c(C(C)C)[nH]c2nc3cc(F)c(F)cc3n2c1=O` [Compound 24, 3-ethyl-7,8-difluoro-2-isopropylbenzo[4,5]imidazo [1,2-a] pyrimidin-4(1H)-one], in assay [1], the “effect on plasma CCL2 levels” value is “significantly decreased levels of CCL2; also recorded: prevented the dramatic increase in CCL2 levels”. The “inhibition of CST-14-induced Gαi1 dissociation” value at MRGPRX2 was “completely inhibited”. For the same compound, the “effect on C48/80-induced paw swelling” value in assay [2] is on record as “significant decrease in paw swelling; also recorded: prevents or reduces edema formation”.
